Reference: patent US20260008768A1, “UREA DERIVATIVES FOR INHIBITING NLRP3 AND USES THEREOF” (VENTUS THERAPEUTICS U.S., INC., priority 2023, published 2026)

Key:
human NLRP3 [1] = target: T1, human NLRP3 (Homo sapiens, UniProt Q96P20); experiment: Scintillation Proximity (SPA) NLRP3 Assay, displacement of 3H-MCC950; format: binding; details: for IC50: displacement of 3H-MCC950 from human NLRP3; for fold improvement in binding activity (SPA IC50): relative to Comparative Example B1
Procedure, shortened: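 Human NLRP3 (350 nM) preincubated 15 min at RT with compound (5% DMSO final) in HEPES pH 7.5 buffer with 100 μM ADP, then 125 nM 3H-MCC950 added for 60 min. Copper PVT SPA beads added; counts read 6 h later. Specific binding = signal minus no-protein wells, duplicates averaged; IC50 reported.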

human NLRP3 [2] = target: T1, human NLRP3; experiment: Human Whole Blood (hWB) NLRP3 Assay (LPS/ATP, IL-1β); format: cell-based; parameters: host or cells: human whole blood from healthy volunteers (A3)
Experimental: Human whole blood is drawn from healthy volunteers after obtaining written informed consent. Heparin lithium coated tubes are used to collect blood from volunteers. Blood samples are distributed on 96 well plates using 90 μl per well.
Priming procedure: Priming is performed by adding 5 μl of LPS (O26:B6; Sigma L-2654) at a final concentration of 1 μg/ml for 4.5 hours in a humidified incubator with 37° C., 5% CO2. Thirty minutes prior to NLRP3 activation, 5 μl of a 20× compound solution or vehicle (2% dimethylsulfoxide (DMSO)) is added to each well and plates were incubated on a shaker (450 rpm) in a humidified incubator with 37° C., 5% CO2.
Alternative priming procedure: Thirty minutes prior to LPS priming, 5 μl of a 20× compound solution or vehicle (2% dimethylsulfoxide (DMSO)) is added to each well and plates were incubated on a shaker (450 rpm) in a humidified incubator with 37° C., 5% CO2. Priming is performed by adding 5 μl of LPS (O26:B6; Sigma L-2654) at a final concentration of 1 μg/ml for 5 hours in a humidified incubator with 37° C., 5% CO2.
Activation is then performed by adding 3.3 μl of a 31×ATP solution per well. At the end of the 30 minutes stimulation, the plates are centrifuged (800 g, 10 min, room temperature) and the plasma from each well is frozen at −80° C. IL-1β levels in the supernatant were analyzed using a mesoscale discovery assay (MSD K151TUK) according to the manufacturers' instructions.
There is no detectable difference in assay results using the priming procedure versus the alternative priming procedure.
hWB NLRP3 IC50 assay results, as a measurement of whole blood potency, are provided in Table B. “A” activity=<1 uM; “B” activity=1-2 uM; “C” activity=>2-3 uM; “D” activity=>3 uM.

human NLRP3 [3] = target: T1, human NLRP3; experiment: Human PBMC NLRP3 Assay (LPS priming, ATP stimulation, cytokine measurement); format: cell-based; parameters: host or cells: human PBMCs (A2); human whole blood from healthy volunteers (A3); details: for IC50: human PBMC, LPS + ATP
Experimental: Reagents: Human PBMCs (Normal): iXCells Cat #10HU-003; RPMI 1640 medium with GlutaMAX: ThermoFisher Cat #61870127 (Complete Media: 4.5 g/L D-glucose, 10% FBS, 100 mM NaPyr, 1% Pen/Strep, 10 mM HEPES and 0.05 mM of ®-mercaptoethanol; Assay Media: 4.5 g/L D-glucose, 100 mM NaPyr, 1% Pen/Strep, 10 mM HEPES and 0.05 mM of mercaptoethanol; 96-well V-bottom Plates: Costar Cat #3894; LPS (E. coli O26:B6): Sigma Cat #L2654, stock 5 mg/mL in PBS; ATP: Sigma Cat #A6419, prepared in a 250 mM stock in 1 M HEPES (adjusted to pH 7.4).
Cryopreserved PBMCs were rapidly thawed in a 37° C. water bath for 2 min. Cells were then centrifuged at 1200 RPM for 5 min and resuspended in ˜50 mL of fresh RPMI 1640 Complete Medium. A count was undertaken using a hemocytometer and adjusted to 2.5×10^5 cells/mL. V-shaped 96-well plates were seeded with 200 μL of PBMCs (5×10^4) per well and subsequently incubated overnight at 37° C. with 5% CO2. Assay Media was then prepared containing 100 ng/ml of LPS. PBMCs were then centrifuged at 1,200 RPM for 5 min, serum containing media was aspirated, and 150 μL/well of Assay Media+LPS was immediately added. Assay Media without LPS was added in the untreated control wells. Cells were then primed with LPS for 4 h at 37° C. with 5% CO2. A concentration response curve (CRC) was prepared of 1000× test compound in 100% DMSO. The CRC was then diluted 1:50 in Assay Media and then further diluted by 1:5× in Assay Media resulting in a final 4×CRC in 0.4% DMSO/Assay Media. 50 μL/well of 4× test compound CRC or vehicle (0.4% DMSO/Assay Media) was then transferred into each well and subsequently incubated for 30 min at 37° C. with 5% CO2. Cells were stimulated by adding 4 μL of 250 mM ATP, using a 250 mM stock prepared in 1 M Hepes without further dilution (for a final concentration of 5 mM), for 1 h at 37° C. with 5% CO2 Plates were then centrifuged at 1200 RPM for 5 min; and 50 μl of the media was transferred to a clean 96-well storage plate for cytokine measurements using the mesoscale platform, and stored at −80° C. until analyzed. Compounds were added 30 minutes before priming the cells with LPS when TNFα was required to be quantified in the cytokine panel to confirm selectivity.
PBMC NLRP3 IC50 assay results, as a measurement of cellular potency, are provided in Table B. “A” activity=<0.01 uM; “B” activity=0.01-0.1 uM; “C” activity=>0.1-0.5 uM; “D” activity=>0.5 uM.

T1 sequence (Q96P20 whole entry): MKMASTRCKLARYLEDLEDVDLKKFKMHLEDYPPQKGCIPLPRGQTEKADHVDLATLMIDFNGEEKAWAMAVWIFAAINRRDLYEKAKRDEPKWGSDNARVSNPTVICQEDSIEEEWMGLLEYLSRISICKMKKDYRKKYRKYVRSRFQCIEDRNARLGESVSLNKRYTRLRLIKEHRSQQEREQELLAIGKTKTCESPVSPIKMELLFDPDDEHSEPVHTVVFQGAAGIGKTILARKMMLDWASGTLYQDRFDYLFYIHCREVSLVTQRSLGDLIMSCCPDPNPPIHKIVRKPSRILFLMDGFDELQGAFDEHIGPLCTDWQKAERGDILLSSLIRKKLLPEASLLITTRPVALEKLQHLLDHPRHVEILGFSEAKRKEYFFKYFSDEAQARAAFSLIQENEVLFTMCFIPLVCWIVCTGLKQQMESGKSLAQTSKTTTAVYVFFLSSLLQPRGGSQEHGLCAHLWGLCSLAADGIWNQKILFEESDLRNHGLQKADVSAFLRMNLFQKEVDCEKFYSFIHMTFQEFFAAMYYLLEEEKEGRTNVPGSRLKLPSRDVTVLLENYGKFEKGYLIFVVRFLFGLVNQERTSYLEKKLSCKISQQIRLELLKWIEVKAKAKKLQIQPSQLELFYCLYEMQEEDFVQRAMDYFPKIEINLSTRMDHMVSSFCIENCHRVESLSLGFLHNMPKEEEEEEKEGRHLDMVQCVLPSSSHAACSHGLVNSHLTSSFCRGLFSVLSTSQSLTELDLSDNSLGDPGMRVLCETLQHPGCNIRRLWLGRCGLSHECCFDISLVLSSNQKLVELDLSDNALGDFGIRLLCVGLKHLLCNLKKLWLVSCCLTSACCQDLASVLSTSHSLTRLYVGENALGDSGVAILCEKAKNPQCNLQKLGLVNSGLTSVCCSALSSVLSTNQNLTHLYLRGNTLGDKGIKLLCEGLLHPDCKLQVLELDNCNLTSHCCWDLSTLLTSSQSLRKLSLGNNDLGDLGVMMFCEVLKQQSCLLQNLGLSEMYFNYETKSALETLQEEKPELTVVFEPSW

SMILES	IC50 (human NLRP3 [1]; Table B, activity class)	IC50 (human NLRP3 [2]; Table B, activity class)	also measured
C[C@@H]1C[C@@H](NC(=O)N(C)c2c(F)cc(OC(F)F)cc2F)[C@H]2CC[C@@H]1N2c1nnn[nH]1 (single isomer, unassigned) [61A*]	< 1 µM	< 1 µM	IC50 (human NLRP3 [3]; Table B, activity class): < 0.01 µM
C[C@@H]1C[C@@H](NC(=O)N(C)c2ccc(OC(F)(F)F)c(OC(F)F)c2)[C@H]2CC[C@@H]1N2c1nnn[nH]1 (single isomer, unassigned) [63A*]	< 1 µM	2 to 3 µM	–
C[C@@H]1C[C@@H](NC(=O)N(C)c2ccc(OC(F)(F)F)c(F)c2)[C@H]2CC[C@@H]1N2c1nnn[nH]1 (single isomer, unassigned) [51A*]	< 1 µM	1 to 2 µM	–
CCN(C(=O)N[C@@H]1C[C@@H](C)[C@@H]2CC[C@H]1N2c1nnn[nH]1)c1ccc(OC(F)F)cc1F (single isomer, unassigned) [65A*]	< 1 µM	< 1 µM	–
C[C@@H]1C[C@@H](NC(=O)N(C)c2ccc(OC(F)F)c(F)c2F)[C@H]2CC[C@@H]1N2c1nnn[nH]1 (single isomer, unassigned) [58A*]	–	< 1 µM	–
C[C@@H]1C[C@@H](NC(=O)N(C)c2ccc(C(F)(F)F)c(F)c2F)[C@H]2CC[C@@H]1N2c1nnn[nH]1 (single isomer, unassigned) [47A*]	< 1 µM	1 to 2 µM	–
C[C@@H]1C[C@@H](NC(=O)N(C)c2ccc(C(F)(F)F)cc2F)[C@H]2CC[C@@H]1N2c1nnn[nH]1 (single isomer, unassigned) [48A*]	< 1 µM	< 1 µM	–
C[C@@H]1C[C@@H](NC(=O)N(C)c2ccc(OC(F)(F)F)cc2)[C@H]2CC[C@@H]1N2c1nnn[nH]1 (single isomer, unassigned) [45A*]	–	< 1 µM	IC50 (human NLRP3 [1]; Table C): 0.11 µM; fold increase in binding activity (SPA IC50) (human NLRP3 [1]; relative to Compound 39A): > 12 fold; IC50 (human NLRP3 [2]; Table C): 0.42 µM
C[C@@H]1CCN(c2nnn[nH]2)C[C@H](NC(=O)N(C)c2ccc(C(F)F)c(F)c2)C1 (single isomer, unassigned) [22A*]	< 1 µM	1 to 2 µM	–
C[C@@H]1C[C@@H](NC(=O)N(C)c2ccc(C(F)F)cc2F)[C@H]2CC[C@@H]1N2c1nnn[nH]1 (single isomer, unassigned) [55A*]	< 1 µM	< 1 µM	–
CN(C(=O)Nc1cccc(-c2nnn[nH]2)c1)c1ccc(Cl)cc1 [Comparative Example B2, 3-(3-(1H-tetrazol-5-yl)phenyl)-1-(4-chlorophenyl)-1-methylurea, reference compound]	–	–	IC50 (human NLRP3 [1]; Table C): 12.5 µM; fold improvement in binding activity (SPA IC50) (human NLRP3 [1]): > 15 fold; IC50 (human NLRP3 [3]; Table C): 4.2 µM
CCN(C(=O)N[C@@H]1C[C@H](C)CN(c2nnn[nH]2)C1)c1ccc(Cl)cc1 [Compound 6A, 1-(4-chlorophenyl)-1-ethyl-3-((3R,5S)-5-methyl-1-(1H-tetrazol-5-yl)piperidin-3-yl)urea]	< 1 µM	–	IC50 (human NLRP3 [3]; Table B, activity class): 0.01 to 0.1 µM
C[C@@H]1C[C@@H](NC(=O)N(C)c2ccc(OC(F)(F)F)cc2F)[C@H]2CC[C@@H]1N2c1nnn[nH]1 (single isomer, unassigned) [56A*]	< 1 µM	< 1 µM	–

Continued, in another order:

IC50 (human NLRP3 [1]; Table B, activity class)	SMILES	IC50 (human NLRP3 [2]; Table B, activity class)	also measured
1 to 10 µM	C[C@H]1CCN(c2nnn[nH]2)C[C@@H](NC(=O)N(C)c2ccc(OC(F)F)c(F)c2F)C1 (single isomer, unassigned) [40D*]	> 3 µM	–
10 to 50 µM	C[C@@H]1CCN(c2nnn[nH]2)C[C@H](NC(=O)N(C)c2cnc(C(F)(F)F)cn2)C1 (single isomer, unassigned) [32A*]	> 3 µM	–
1 to 10 µM	CN(C(=O)N[C@@H]1CCCN(c2nnn[nH]2)C1)c1ccc(Cl)cc1 [Compound 2A, (R)-3-(1-(1H-tetrazol-5-yl)piperidin-3-yl)-1-(4-chlorophenyl)-1-methylurea]	–	IC50 (human NLRP3 [1]; Table C): 9.7 µM; fold improvement in binding activity (SPA IC50) (human NLRP3 [1]): > 19 fold; IC50 (human NLRP3 [3]; Table B, activity class): 0.1 to 0.5 µM; IC50 (human NLRP3 [3]; Table C): 0.268 µM; fold increase in potency as measured by PBMC IC50 (human NLRP3 [3]; relative to Comparative Example A*): > 350 fold; fold improvement in potency (PBMC IC50) (human NLRP3 [3]; relative to Comparative Example B1): > 18 fold; fold increase in potency as measured by PBMC IC50 (human NLRP3 [3]; relative to Comparative Example B2): > 15 fold; fold improvement in potency (PBMC IC50) (human NLRP3 [3]; relative to Comparative Example C1): 40 fold; fold improvement in potency (PBMC IC50) (human NLRP3 [3]; relative to Comparative Example C2): > 200 fold; fold increase in potency (PBMC IC50) (human NLRP3 [3]; relative to Comparative Example D1): 146 fold; fold increase in potency (PBMC IC50) (human NLRP3 [3]; relative to Comparative Example D2): > 350 fold; fold increase in potency (PBMC IC50) (human NLRP3 [3]; relative to Comparative Example F): 58 fold; fold increase in potency (PBMC IC50) (human NLRP3 [3]; relative to Comparative Example G): > 350 fold; fold increase in potency (PBMC IC50) (human NLRP3 [3]; relative to Comparative Example H): 39 fold; fold increase in potency (PBMC IC50) (human NLRP3 [3]; relative to Comparative Example J1): > 350 fold; fold increase in potency (PBMC IC50) (human NLRP3 [3]; relative to Comparative Example J2): > 350 fold
< 1 µM	C[C@@H]1CCN(c2nnn[nH]2)C[C@H](NC(=O)N(C)c2ccc(Cl)cc2Cl)C1 (single isomer, unassigned) [7A*]	–	IC50 (human NLRP3 [1]; Table C): 0.24 µM; IC50 (human NLRP3 [3]; Table B, activity class): < 0.01 µM; IC50 (human NLRP3 [3]; Table C): 0.009 µM
< 1 µM	C[C@@H]1CCN(c2nnn[nH]2)C[C@H](NC(=O)N(C)c2ccc(OC(F)(F)F)c(OC(F)F)c2)C1 (single isomer, unassigned) [25A*]	1 to 2 µM	–
< 1 µM	C[C@@H]1CCN(c2nnn[nH]2)C[C@H](NC(=O)N(CC2CC2)c2ccc(OC(F)(F)F)cc2)C1 (single isomer, unassigned) [44A*]	2 to 3 µM	–
< 1 µM	C[C@@H]1CCN(c2nnn[nH]2)C[C@H](NC(=O)N(C)c2ccc(C(F)(F)F)c(F)c2)C1 (single isomer, unassigned) [9A*]	–	IC50 (human NLRP3 [3]; Table B, activity class): 0.01 to 0.1 µM
